A word on the IC50: it is the midpoint of a concentration-inhibition curve. As a reminder, the Km is the substrate concentration at which the rate is half of its maximum.

Where “and” joins values, the source holds several entries; their conditions need not be identical. Equal entries are not always repeated. Structures can show the parent of a compound that is named as a salt. Where two headings read alike, the source gives them in different places. Some results are limits rather than exact numbers.

This is an account of results in PMC4660513 (Pharmacognosy Research, 2015).

Series [1] concerns human UGT2B7. The following applies: read-out: estimated IC50, human UGT2B7; previous study; cited from earlier work.
The conditions of series [2]: cited from earlier work.
Series [3] deals with UGT (4-MU glucuronidation). In words: 4-MU glucuronidation inhibition assay in rat liver microsomes. The following applies: rat, rat liver microsomes, pH 7.4, probe 4-methylumbelliferone (4-MU), 100 μM. Format: in vitro ADME.
The target in another series is T1, recombinant human UGT2B7 (Homo sapiens, UniProt P16662).
T1 sequence (P16662 24-529): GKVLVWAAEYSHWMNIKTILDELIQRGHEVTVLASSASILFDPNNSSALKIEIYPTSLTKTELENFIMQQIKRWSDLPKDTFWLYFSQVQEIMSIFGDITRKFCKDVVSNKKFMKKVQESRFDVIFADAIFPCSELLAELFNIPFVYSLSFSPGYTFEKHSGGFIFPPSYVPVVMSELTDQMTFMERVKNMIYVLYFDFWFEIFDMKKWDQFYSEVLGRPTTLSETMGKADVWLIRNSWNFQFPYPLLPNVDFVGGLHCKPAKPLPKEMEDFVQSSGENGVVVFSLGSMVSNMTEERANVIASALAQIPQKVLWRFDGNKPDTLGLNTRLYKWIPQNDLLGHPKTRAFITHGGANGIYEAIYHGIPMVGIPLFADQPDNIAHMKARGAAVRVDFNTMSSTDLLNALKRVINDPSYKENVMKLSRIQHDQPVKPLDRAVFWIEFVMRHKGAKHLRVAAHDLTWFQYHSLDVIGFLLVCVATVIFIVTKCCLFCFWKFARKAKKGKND
In words: 4-MU glucuronidation inhibition assay with recombinant human UGT2B7 isoform. It is filed as in vitro ADME.

In the next series the test system is UGT (s). The following applies: cited from earlier work.
The test system of another series is human UGT2B15. The following applies: read-out: estimated IC50, human UGT2B15; previous study; cited from earlier work.
Another series has as its system human UGT1A1. The following applies: previous report; cited from earlier work.
A further series deals with T2, recombinant human UGT1A1 (Homo sapiens, UniProt P22309).
T2 sequence (P22309 26-533): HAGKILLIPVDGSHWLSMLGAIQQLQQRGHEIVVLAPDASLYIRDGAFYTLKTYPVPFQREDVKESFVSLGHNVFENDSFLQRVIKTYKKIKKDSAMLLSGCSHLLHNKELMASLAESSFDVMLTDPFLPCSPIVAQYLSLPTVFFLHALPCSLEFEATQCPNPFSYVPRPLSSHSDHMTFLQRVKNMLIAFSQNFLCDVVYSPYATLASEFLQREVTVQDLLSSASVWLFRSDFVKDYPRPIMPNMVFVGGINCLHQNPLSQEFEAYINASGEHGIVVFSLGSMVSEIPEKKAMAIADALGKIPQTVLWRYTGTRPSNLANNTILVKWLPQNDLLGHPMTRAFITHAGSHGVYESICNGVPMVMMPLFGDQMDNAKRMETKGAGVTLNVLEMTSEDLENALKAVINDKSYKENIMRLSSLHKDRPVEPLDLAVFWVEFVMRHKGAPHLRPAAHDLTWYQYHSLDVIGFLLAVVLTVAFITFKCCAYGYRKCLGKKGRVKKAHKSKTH
In words: 4-MU glucuronidation inhibition assay with recombinant human UGT1A1 isoform. Format: in vitro ADME.

For series [4], the system named is human UGT2B7. The following applies: read-out: Km for 4-MU glucuronidation by human UGT2B7 isoform; cited from earlier work.
For another series, the system named is rat liver microsomes. In words: 4-MU glucuronidation inhibition assay in rat liver microsomes. Format: in vitro ADME.
The test system of series [5] is human UGT2B7. The following applies: read-out: Km for buprenorphine glucuronidation by human UGT2B7 isoform; cited from earlier work.
In the next series the test system is UGT1A1. The following applies: except at highly extraordinary concentrations; cited from earlier work.
Another series deals with human liver microsomes. In words: 4-MU glucuronidation inhibition assay in human liver microsomes. Format: in vitro ADME. The following applies: comparison of IC50 values.

For the compound `CNC1(c2ccccc2Cl)CCCCC1=O` (centres unmarked) [Ketamine, Ketamine hydrochloride], the 50% inhibitory concentration (IC50) is 55 µM in the series on human UGT2B7 [1], 27.3 ± 1.18 µM at recombinant human UGT2B7, 95 µM in the series on human UGT2B15 and more than 1000 µM at recombinant human UGT1A1. Also, the “ketamine concentration after low-dose administration” value in series [2] (0.125–0.250 mg/kg intravenous) was > 0.42 μM and > 100 μg/l. Also, the “mean plasma concentration during steady-state anesthesia” value in [2] (induction 2 mg/kg, maintenance approx. 40 μg/kg/min) was 9.3 µM. In addition, the IC50 at 30 min in [3] was 6.21 ± 1.51 µM. Besides, in the series on UGT (s), the “manner of inhibition of morphine-3-glucuronide formation” value is “non-competitive”. Also, the “inhibitory effect on 4-MU glucuronidation in human UGT1A1 isoform” value in the series on human UGT1A1 is on record as “weak inhibitory effect”.
`O=C(O)Cc1ccccc1Nc1c(Cl)cccc1Cl` [Diclofenac, diclofenac] showed a half-inhibitory concentration (IC50) at 30 min in [3] of 21.1 ± 1.32 µM. Also, the IC50 on recombinant human UGT1A1 amounted to 2.34 ± 1.28 µM.
With `Cc1cc(=O)oc2cc(O)ccc12` [4-MU, 4-methylumbelliferone], the Km in the series with human UGT2B7 [4] is 335 µM.
As to buprenorphine hydrochloride, the “potency relative to diclofenac” value with rat liver microsomes (rat liver microsomes, comparison of IC50 values) is “about three orders of magnitude less potent than diclofenac”. Also, in the series with rat liver microsomes (read-out: IC50 on 4-MUG formation, rat liver microsomes), the IC50 worked out at 73.2 ± 1.63 µM. Besides, the Km in the series on human UGT2B7 [5] was 20.9 µM. The “inhibitory effect on bilirubin glucuronidation catalyzed by UGT1A1” value in the series on UGT1A1 is on record as “no significant inhibitory effect”. The “potency relative to diclofenac (more potent)” value in the series on human liver microsomes is “about 13 orders of magnitude”.
